{"source": "PubChem BioAssay AID2060890", "about": "(Molecular Pharmacology Branch, DTP, NCI, 2025)", "test_system": "LG0703-F948-PDC complex spheroid viability", "test": "Anticancer human tumor LG0703-F948-PDC patient-derived lung adenocarcinoma cell line growth inhibition [RAS]", "settings": "for viability, T/C: stronger effect = lower value", "summary_of_the_method": "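Agents were tested in combination matrices in half-log decrements from a top concentration at or near clinical Cmax (10 microM if undetermined). Targets were multi-cell spheroids of tumour lines plus HUVEC and MSC stromal cells.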", "key": {"[1]": {"settings": "curve of first compound, second compound 0.00316 µM"}, "[2]": {"settings": "curve of first compound, second compound 0.01 µM"}, "[3]": {"settings": "curve of first compound, second compound 0.0316 µM"}, "[4]": {"settings": "curve of first compound, second compound 0.1 µM"}, "[5]": {"settings": "curve of first compound, second compound 0.316 µM"}, "[6]": {"settings": "curve of first compound, second compound 1 µM"}}, "note": "Values joined by “and” are separate entries in the source; they are usually repeats but may differ in a detail not shown here. Equal values may be shown once.", "data": [{"compound": "CC1(C)CCC(Nc2ncc(C(F)(F)F)c(-c3c[nH]c4c(P(C)(C)=O)c(C#N)ccc34)n2)CN1", "note": "(stereo unspecified) + C=CC(=O)N1CCN(c2nc(OCC3CCCN3C)nc3c(F)c(-c4nc(N)cc(C)c4C(F)(F)F)c(Cl)cc23)C(C)C1;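 also: spheroids exposed to agents for 7 days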;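 as to viability, T/C: 100% = DMSO vehicle wells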", "values": [{"measurement": "IC50", "setting": "[1]", "value": "> 300", "unit": "nM"}, {"measurement": "IC50", "setting": "[2]", "value": "> 300", "unit": "nM"}, {"measurement": "IC50", "setting": "[3]", "value": "> 300", "unit": "nM"}, {"measurement": "IC50", "setting": "[4]", "value": "> 300", "unit": "nM"}, {"measurement": "IC50", "setting": "[5]", "value": "> 300", "unit": "nM"}, {"measurement": "IC50", "setting": "[6]", "value": "> 300", "unit": "nM"}, {"measurement": "viability, T/C", "setting": "second compound 0.00316 µM, first compound 0.000949 µM", "value": 84.1, "unit": "%"}, {"measurement": "viability, T/C", "setting": "second compound 0.00316 µM, first compound 0.003 µM", "value": 76.8, "unit": "%"}, {"measurement": "viability, T/C", "setting": "second compound 0.00316 µM, first compound 0.00949 µM", "value": 63.5, "unit": "%"}, {"measurement": "viability, T/C", "setting": "second compound 0.00316 µM, first compound 0.03 µM", "value": 62.8, "unit": "%"}, {"measurement": "viability, T/C", "setting": "second compound 0.00316 µM, first compound 0.0949 µM", "value": 57, "unit": "%"}, {"measurement": "viability, T/C", "setting": "second compound 0.00316 µM, first compound 0.3 µM", "value": 57.3, "unit": "%"}, {"measurement": "viability, T/C", "setting": "second compound 0.01 µM, first compound 0.000949 µM", "value": 88.5, "unit": "%"}, {"measurement": "viability, T/C", "setting": "second compound 0.01 µM, first compound 0.003 µM", "value": 78.8, "unit": "%"}, {"measurement": "viability, T/C", "setting": "second compound 0.01 µM, first compound 0.00949 µM", "value": 67, "unit": "%"}, {"measurement": "viability, T/C", "setting": "second compound 0.01 µM, first compound 0.03 µM", "value": 52.9, "unit": "%"}, {"measurement": "viability, T/C", "setting": "second compound 0.01 µM, first compound 0.0949 µM", "value": 58.7, "unit": "%"}, {"measurement": "viability, T/C", "setting": "second compound 0.01 µM, first compound 0.3 µM", "value": 62, "unit": "%"}, {"measurement": "viability, T/C", "setting": "second compound 0.0316 µM, first compound 0.000949 µM", "value": 94, "unit": "%"}, {"measurement": "viability, T/C", "setting": "second compound 0.0316 µM, first compound 0.003 µM", "value": 71.4, "unit": "%"}, {"measurement": "viability, T/C", "setting": "second compound 0.0316 µM, first compound 0.00949 µM", "value": 68.8, "unit": "%"}, {"measurement": "viability, T/C", "setting": "second compound 0.0316 µM, first compound 0.03 µM", "value": 53.2, "unit": "%"}, {"measurement": "viability, T/C", "setting": "second compound 0.0316 µM, first compound 0.0949 µM", "value": 54.7, "unit": "%"}, {"measurement": "viability, T/C", "setting": "second compound 0.0316 µM, first compound 0.3 µM", "value": 62.1, "unit": "%"}, {"measurement": "viability, T/C", "setting": "second compound 0.1 µM, first compound 0.000949 µM", "value": 82.3, "unit": "%"}, {"measurement": "viability, T/C", "setting": "second compound 0.1 µM, first compound 0.003 µM", "value": 77.1, "unit": "%"}, {"measurement": "viability, T/C", "setting": "second compound 0.1 µM, first compound 0.00949 µM", "value": 55.9, "unit": "%"}, {"measurement": "viability, T/C", "setting": "second compound 0.1 µM, first compound 0.03 µM", "value": 52.9, "unit": "%"}, {"measurement": "viability, T/C", "setting": "second compound 0.1 µM, first compound 0.0949 µM", "value": 58.4, "unit": "%"}, {"measurement": "viability, T/C", "setting": "second compound 0.1 µM, first compound 0.3 µM", "value": 65.3, "unit": "%"}, {"measurement": "viability, T/C", "setting": "second compound 0.316 µM, first compound 0.000949 µM", "value": 98.4, "unit": "%"}, {"measurement": "viability, T/C", "setting": "second compound 0.316 µM, first compound 0.003 µM", "value": 78.5, "unit": "%"}, {"measurement": "viability, T/C", "setting": "second compound 0.316 µM, first compound 0.00949 µM", "value": 62.2, "unit": "%"}, {"measurement": "viability, T/C", "setting": "second compound 0.316 µM, first compound 0.03 µM", "value": 62, "unit": "%"}, {"measurement": "viability, T/C", "setting": "second compound 0.316 µM, first compound 0.0949 µM", "value": 58.8, "unit": "%"}, {"measurement": "viability, T/C", "setting": "second compound 0.316 µM, first compound 0.3 µM", "value": 67.3, "unit": "%"}, {"measurement": "viability, T/C", "setting": "second compound 1 µM, first compound 0.000949 µM", "value": 84.8, "unit": "%"}, {"measurement": "viability, T/C", "setting": "second compound 1 µM, first compound 0.003 µM", "value": 77.8, "unit": "%"}, {"measurement": "viability, T/C", "setting": "second compound 1 µM, first compound 0.00949 µM", "value": 64.5, "unit": "%"}, {"measurement": "viability, T/C", "setting": "second compound 1 µM, first compound 0.03 µM", "value": 57.4, "unit": "%"}, {"measurement": "viability, T/C", "setting": "second compound 1 µM, first compound 0.0949 µM", "value": 66.1, "unit": "%"}, {"measurement": "viability, T/C", "setting": "second compound 1 µM, first compound 0.3 µM", "value": 59.9, "unit": "%"}]}, {"compound": "NC1c2ccccc2OC12CCN(c1cnc3c(N4CCCc5ncccc54)n[nH]c3n1)CC2", "note": "(stereo unspecified) + C=CC(=O)N1CCN(c2nc(OCC3CCCN3C)nc3c(F)c(-c4nc(N)cc(C)c4C(F)(F)F)c(Cl)cc23)C(C)C1", "values": [{"measurement": "IC50", "setting": "[1]", "value": 38.6, "unit": "nM"}, {"measurement": "IC50", "setting": "[2]", "value": 47.8, "unit": "nM"}, {"measurement": "IC50", "setting": "[3]", "value": 42.8, "unit": "nM"}, {"measurement": "IC50", "setting": "[4]", "value": 51.7, "unit": "nM"}, {"measurement": "IC50", "setting": "[5]", "value": 59.1, "unit": "nM"}, {"measurement": "IC50", "setting": "[6]", "value": 41.6, "unit": "nM"}, {"measurement": "viability, T/C", "setting": "second compound 0.00316 µM, first compound 0.0316 µM", "value": 54.5, "unit": "%"}, {"measurement": "viability, T/C", "setting": "second compound 0.00316 µM, first compound 0.1 µM", "value": 31.4, "unit": "%"}, {"measurement": "viability, T/C", "setting": "second compound 0.00316 µM, first compound 0.316 µM", "value": 16, "unit": "%"}, {"measurement": "viability, T/C", "setting": "second compound 0.00316 µM, first compound 1 µM", "value": 10.9, "unit": "%"}, {"measurement": "viability, T/C", "setting": "second compound 0.00316 µM, first compound 3.16 µM", "value": 4.54, "unit": "%"}, {"measurement": "viability, T/C", "setting": "second compound 0.00316 µM, first compound 10 µM", "value": 2.7, "unit": "%"}, {"measurement": "viability, T/C", "setting": "second compound 0.01 µM, first compound 0.0316 µM", "value": 58.3, "unit": "%"}, {"measurement": "viability, T/C", "setting": "second compound 0.01 µM, first compound 0.1 µM", "value": 35, "unit": "%"}, {"measurement": "viability, T/C", "setting": "second compound 0.01 µM, first compound 0.316 µM", "value": 19.9, "unit": "%"}, {"measurement": "viability, T/C", "setting": "second compound 0.01 µM, first compound 1 µM", "value": 8.08, "unit": "%"}, {"measurement": "viability, T/C", "setting": "second compound 0.01 µM, first compound 3.16 µM", "value": 5.69, "unit": "%"}, {"measurement": "viability, T/C", "setting": "second compound 0.01 µM, first compound 10 µM", "value": 1.86, "unit": "%"}, {"measurement": "viability, T/C", "setting": "second compound 0.0316 µM, first compound 0.0316 µM", "value": 55.8, "unit": "%"}, {"measurement": "viability, T/C", "setting": "second compound 0.0316 µM, first compound 0.1 µM", "value": 34.1, "unit": "%"}, {"measurement": "viability, T/C", "setting": "second compound 0.0316 µM, first compound 0.316 µM", "value": 20.5, "unit": "%"}, {"measurement": "viability, T/C", "setting": "second compound 0.0316 µM, first compound 1 µM", "value": 10.8, "unit": "%"}, {"measurement": "viability, T/C", "setting": "second compound 0.0316 µM, first compound 3.16 µM", "value": 4.57, "unit": "%"}, {"measurement": "viability, T/C", "setting": "second compound 0.0316 µM, first compound 10 µM", "value": 1.97, "unit": "%"}, {"measurement": "viability, T/C", "setting": "second compound 0.1 µM, first compound 0.0316 µM", "value": 60.3, "unit": "%"}, {"measurement": "viability, T/C", "setting": "second compound 0.1 µM, first compound 0.1 µM", "value": 35.2, "unit": "%"}, {"measurement": "viability, T/C", "setting": "second compound 0.1 µM, first compound 0.316 µM", "value": 22.8, "unit": "%"}, {"measurement": "viability, T/C", "setting": "second compound 0.1 µM, first compound 1 µM", "value": 7.04, "unit": "%"}, {"measurement": "viability, T/C", "setting": "second compound 0.1 µM, first compound 3.16 µM", "value": 4.16, "unit": "%"}, {"measurement": "viability, T/C", "setting": "second compound 0.1 µM, first compound 10 µM", "value": 1.66, "unit": "%"}, {"measurement": "viability, T/C", "setting": "second compound 0.316 µM, first compound 0.0316 µM", "value": 69.5, "unit": "%"}, {"measurement": "viability, T/C", "setting": "second compound 0.316 µM, first compound 0.1 µM", "value": 32.4, "unit": "%"}, {"measurement": "viability, T/C", "setting": "second compound 0.316 µM, first compound 0.316 µM", "value": 17.3, "unit": "%"}, {"measurement": "viability, T/C", "setting": "second compound 0.316 µM, first compound 1 µM", "value": 8.03, "unit": "%"}, {"measurement": "viability, T/C", "setting": "second compound 0.316 µM, first compound 3.16 µM", "value": 4.54, "unit": "%"}, {"measurement": "viability, T/C", "setting": "second compound 0.316 µM, first compound 10 µM", "value": 1.99, "unit": "%"}, {"measurement": "viability, T/C", "setting": "second compound 1 µM, first compound 0.0316 µM", "value": 56.2, "unit": "%"}, {"measurement": "viability, T/C", "setting": "second compound 1 µM, first compound 0.1 µM", "value": 30.1, "unit": "%"}, {"measurement": "viability, T/C", "setting": "second compound 1 µM, first compound 0.316 µM", "value": 19.4, "unit": "%"}, {"measurement": "viability, T/C", "setting": "second compound 1 µM, first compound 1 µM", "value": 8.31, "unit": "%"}, {"measurement": "viability, T/C", "setting": "second compound 1 µM, first compound 3.16 µM", "value": 6.93, "unit": "%"}, {"measurement": "viability, T/C", "setting": "second compound 1 µM, first compound 10 µM", "value": 3.04, "unit": "%"}]}, {"compound": "NC1c2ccccc2OC12CCN(c1cnc3c(N4CCCc5ncccc54)n[nH]c3n1)CC2", "note": "(stereo unspecified)", "values": [{"measurement": "viability, T/C", "setting": "compound 0.0316 µM", "value": "50.5% [middle of 4 runs]"}, {"measurement": "viability, T/C", "setting": "compound 0.1 µM", "value": "31.6% [middle of 4 runs]"}, {"measurement": "viability, T/C", "setting": "compound 0.316 µM", "value": "20.4% [middle of 4 runs]"}, {"measurement": "viability, T/C", "setting": "compound 1 µM", "value": "13.1% [middle of 4 runs]"}, {"measurement": "viability, T/C", "setting": "compound 3.16 µM", "value": "5.94% [middle of 4 runs]"}, {"measurement": "viability, T/C", "setting": "compound 10 µM", "value": "2.92% [middle of 4 runs]"}, {"measurement": "IC50", "setting": "curve of compound", "value": "< 31.6 nM and 59 nM"}]}]}
